In patent US9198886B2, “Use of 2,5-dihydroxybenzene for the treatment of ocular diseases” (priority 2006, dated 2015):

Legend:
[1] = system: experimentally induced asthma; assay: OVA-induced asthma in mice (methacholine Penh, BAL cell count); format: in vivo, Balb/c mice
Description: Effect of potassium 2,5-diacetoxybenzene sulfonate (DABS) on bronchoconstriction in asthmatic mice treated with methacholine. All the mice were exposed to nebulized methacholine (MC; 5 and 20 mg/ml). Bronchoconstriction was determined as the enhanced pause. (Penh), calculated as described in the corresponding example (example 13). As control, the background and the exposure to nebulized saline (0.9% NaCl) are shown. *p<0.05 vs. saline.
Effect of potassium 2,5-diacetoxybenzene sulfonate (DABS) on the inflammatory cell count in the bronchoalveolar lavage (BAL) in asthmatic mice. The data are expressed as mean±SEM of the total number of detected cells in the BAL of the right lung of each animal. *p<0.05, ***p<0.001 vs. group treated with vehicle.
6-9 week old Balb/c mice were used. The ovoalbumin (OVA)/aluminum complex was obtained after dissolving OVA (500 μg/mL) in PBS, and mixing it with an equal volume of 10% aluminum potassium sulfate at pH 6.5 for 1 hour. After centrifuging the pellet (750×g for 5 minutes) the OVA/aluminum pellet was resuspended in distilled water. On day 0, the mice were injected intraperitoneally injected with 100 μg of OVA/aluminum. Eight days later, the mice were anesthetized and exposed to 250 μg of OVA. Later, they were administered 125 μg of OVA on days 15, 18 and 21. […].
The following treatments were administered to the animals: (i.p.) vehicle from day 2, potassium 2,5-diacetoxybencene sulfonate (DABS; 100 mg/kg/day, i.p.) from day 2, DABS (100 mg/kg/day, i.p.) from day 8 and Combivent (20 μg/200 μg in aerosol) on days 20, 21 and 22, the latter as a reference treatment.
In order to evaluate the pulmonary function, the response to methacholine in conscious mice was determined, 24 hours after the last exposure to OVA. The mice were exposed to increasing methacholine concentrations (5 and 20 mg/mL) in the form of aerosol using an ultrasonic nebulizer during 2 minutes. The degree of bronchoconstriction was expressed as the enhanced pause (Penh) which correlates to the mouse air resistance, impedance and pressure within the pleura. The Penh was calculated using the formula Penh=[(Te/Rt−1)×(PEF/PIF)], where Te is expiratory time, Rt is relaxation time, PEF is peak expiratory flow and PIF is peak inspiratory flow×0.67 coefficient.
After measuring airway hyperreactivity, the mice were sacrificed and the bronchoalveolar lavage (BAL) of the right lung was collected. The total number of cells in the BAL fluid was determined.

skeletal muscle lesions = assay: Oral treatment of patients with skeletal muscle and tendon lesions (MRI, function); format: in vivo, human
Description: The capacity of a 2,5-dihydroxybenzene derivative, the 2,5-dihydroxybenzene sulfonic acid (DHBS) to effectively treat skeletal muscle lesions is shown herein. The efficacy is evident, not only in the images of conventional diagnosis that show the recovery of the muscular damage, but also there is a clear functional recovery of the affected limb.
The first patient's left quadriceps was broken by practicing sports. […] At that moment, the patient starts a daily oral treatment with 500 mg of 2,5-dihydroxybenzene sulfonic acid (DHBS) for two weeks. […] An observation that may be applied to the other cases that support this example.
Other patient has an hematoma and muscular breaking of the brachial biceps, as shown in the magnetic resonance image (MRI) of FIG. 12A. The hematoma can be appreciated externally (FIG. 13A) and the lesion, produced by professional practice (dancing) the day before the consultation, limits the elbow flexion (FIG. 13B) and extension (FIG. 13C).

[2] = system: angiogenesis induced by Helicobacter pylori in the human gastric mucosa; assay: Gastric mucosa biopsy in a patient chronically infected with Helicobacter pylori; format: in vivo; details: 500 mg/day oral, one week
Description: FIG. 5. Helicobacter pylori • A) Hematoxylin-eosin staining of the gastric mucosa of a sample obtained from a patient infected with Helicobacter pylori before treatment. The arrows and the asterisk indicate the formation of neovessels in the mucosa protruding the gastric lumen through the lost epithelial layer. • B) Hematoxylin-eosin staining of the gastric mucosa of a sample obtained from the same patient infected with Helicobacter pylori after administering 500 mg of 2,5-dihydroxybenzenesulfonate (DHBS) daily for a week.
A biopsy of the gastric mucosa was performed in a patient chronically infected with Helicobacter pylori before the oral treatment with 2,5-dihydroxybenzene sulfonic acid (Dobesilate) (500 mg/day). After a week of treatment, another biopsy was performed in the patient. Both biopsies were evaluated using hematoxylin-eosin staining. […] Microscopically, the arrows and the asterisk indicate the formation of neovessels in the mucosa protruding the gastric lumen through the lost epithelial layer. […] This example illustrates that the use of DHBS is beneficial in the treatment of gastritis and angiogenesis caused by the infection with Helicobacter pylori.

infantile hemangioma = assay: Topical cream in a child with infantile hemangioma; format: in vivo, human; details: cream 2.5%, topical twice a day, 1, 2 and 3 months, one child
Text: Photographs of a child showing the effects of the topical treatment with a cream comprising 2,5-dihydroxybenzenesulfonic (DHBS) (2.5%) in a baby suffering infantile hemangioma.
The cream comprising 2,5-dihydroxybenzene sulfonic (2.5%) was topically applied twice a day for 3 months on the face of a child suffering from infantile hemangioma.

Nakagawa angioblastoma = assay: Topical cream in a child with Nakagawa angioblastoma (hemangioblastoma); format: in vivo, human; details: cream 2.5%, topical twice a day, 1 month, one child
Text: Photographs showing the effects of a topical treatment with a cream comprising 2,5-dihydroxybenzenesulfonic (DHBS) in a child suffering from Nakagawa angioblastoma.
The cream comprising 2,5-dihydroxybenzene sulfonic (2.5%) was topically applied twice a day during 1 month on the face of the child suffering from Nakagawa angioblastoma.

pterygium = assay: Topical solution in a patient with unilateral pterygium; format: in vivo, human; details: 2.5% solution, one drop four times per day, two weeks
Text: FIG. 3. […] The treatment consists of the application of 4 drops of said solution daily, for two weeks.
The solution was applied topically to a patient suffering from unilateral pterygium, as one drop four times per day.

[3] = patient with brachial biceps breaking, 1500 mg/day p.o., 20 days
[4] = patient with broken left quadriceps, 500 mg/day p.o., two weeks

| SMILES | methacholine induced bronchoconstriction (Penh) ([1]; 100 mg/kg/day i.p. from day 2) | methacholine induced bronchoconstriction (Penh) ([1]; 100 mg/kg/day i.p. from day 8) | presence of BAL cells in asthmatic mice ([1]; 100 mg/kg/day i.p., vs vehicle) | BAL cell reduction compared with Combivent ([1]; DABS 100 mg/kg/day i.p., Combivent aerosol days 20-22) | increase of the Penh after exposure to MC vs saline ([1]; MC 5 and 20 mg/ml, Combivent 20 μg/200 μg aerosol days 20-22 or DABS 100 mg/kg/day i.p.) | MRI tendon lesion (skeletal muscle lesions; patient with Achilles tendon breaking, 1500 mg/day p.o., two months) | MRI size of lesion and hematoma (skeletal muscle lesions; [3]) | elbow function (skeletal muscle lesions; [3]) | MRI of quadriceps lesion and hematoma (skeletal muscle lesions; [4]) | functional recovery of the leg (skeletal muscle lesions; [4]) | time to functional recovery and resolution vs conventional treatments (antiinflammatories) (skeletal muscle lesions; [4]) | MRI muscular lesion (skeletal muscle lesions; patient with semitendinous muscle lesion, 1500 mg/day p.o., 11 days) | angiogenic activity in gastric mucosa [2] | epithelial membrane of gastric mucosa [2] | gastric mucosa symptoms of congestion and erythema [2] | appearance of the hemangioma lesion (infantile hemangioma) | coloration of the hemangioblastoma lesion (Nakagawa angioblastoma) | pterygium appearance (pterygium) |
| --- | --- | --- | --- | --- | --- | --- | --- | --- | --- | --- | --- | --- | --- | --- | --- | --- | --- | --- |
| CC(=O)Oc1ccc(OC(C)=O)c(S(=O)(=O)[O-])c1.[K+] [DABS, potassium 2,5-diacetoxybenzene sulfonate] | completely prevented | completely prevented | significantly reduced | even more than the treatment with Combivent | do not show a significant increase of the Penh |  |  |  |  |  |  |  |  |  |  |  |  |  |
| O=S(=O)(O)c1cc(O)ccc1O [DHBS, 2,5-dihydroxybenzene sulfonic acid] |  |  |  |  |  | marked reduction of said lesion | markedly reduces the size of the lesion and of the hematoma | recovers the functionality of the elbow flexion and extension | the hematoma can no longer be observed | able to extend the left leg almost completely | shorter period than the one required in the case of conventional treatments | reduced the muscular lesion | less angiogenic activity | apparently normal | symptoms of congestion and erythema disappear | substantial recovery of the lesion | reduction in the intensity of the reddish coloration | partial reversal of the pterygium |
